Data set [1] relates to FaDu human head and neck cancer. Nature of the data set: Subcutaneous FaDu human head and neck cancer xenograft in immunosuppressed mice. Type of data set: in vivo. As for the experimental part: In the studies shown in FIG. 8, immunosuppressed mice with established subcutaneous FaDu human head and neck cancer were given indicated amount of hand grounded Compound 1 with Crystal Form 1, or vehicle control orally (po). Compound 1 was formulated in […]™. All regimens were administered daily (qd). Tumor sizes were evaluated periodically during treatment.
In the study shown in FIG. 9, immunosuppressed mice with established subcutaneous FaDu human head and neck cancer were given 100 mg/kg of micronized Compound 1 produced with the synthetic process described in FIGS. 5A and 5B (first crop), or vehicle control orally (po). Compound 1 was formulated in […]™. All regimens were administered daily (qd). Tumor sizes were evaluated periodically during treatment. Form 2 has been successfully manufactured by a current good manufacturing practice (cGMP) process and received approval from the FDA and Health Canada to be used in clinical trials.
Form 3 can only be generated from Form 1 using a specially designed slurry process described herein. […] In the study shown in FIG. 10, immunosuppressed mice with established subcutaneous FaDu human head and neck cancer were given 200 mg/kg of Compound 1 with hand grounded Crystal Form 1 or Form 3, or vehicle control orally (po). Compound 1 was formulated in gelucire. All regimens were administered daily (qd). Tumor sizes were evaluated periodically during treatment. This polymorph has been successfully manufactured by a cGMP process and received approval from FDA and Health Canada to be used in clinical trials.
The anti-tumor activity of particles of Compound 1 with different particle size ranges is illustrated in FIG. 15, and the pharmacokinetic data for particles of Compound 1 with different particle size ranges is illustrated in FIGS. 16-18. In the study shown in FIG. 15, immunosuppressed mice with established subcutaneous FaDu human head and neck cancer were given indicated amount of Compound 1 with indicated particle size, or vehicle control orally (po). All regimens were administered daily (qd). Tumor size was evaluated periodically.
In an experiment, a formulation of Compound 1 particles sieved to 160 micron was tested in the model of immunosuppressed mice with established subcutaneous xenograft FaDu human head and neck cancer. The pharmaceutical composition was formulated as 80 mg/ml in 9% Gelucire, 20% Vitamin E TPGS (Table 3). […] All regimens were administered daily (qd).
In an experiment, Compound 1 crystals were milled to a median particle size of about 20 micron. […] All regimens were administered daily (qd).
FaDu human head and neck cancer cells were inoculated subcutaneously into female athymic nude mice (6×10^6 cells/mouse) and allowed to form palpable tumors. When the tumors reached approximately 100 mm^3, the animals were treated orally (po) with Compound 1 at 100 mg/kg or vehicle control daily. Compound 1 was formulated at 10 mg/ml in 20% gelucire. Tumors and bodyweights were measured throughout treatment (FIG. 15).
(§1) Daily examinations into the health status of each animal were also conducted. Body weights were checked every three days. Food and water was supplied daily according to the animal husbandry procedures of the facility. Treatment producing >20% lethality and or >20% net body weight loss were considered toxic. Results are expressed as mean tumor volume (mm^3)±SE. P Values <0.05 are considered to be statistically relevant.
Male or female athymic nude mice 4-5 weeks (Charles River Laboratories, Wilmington, Mass.), were acclimated to the animal housing facility for at least 1 week before study initiation. […]
(Xenograft models place foreign cells or tissue in a host animal.)

In data set [2] the test system is cancer cells and normal cells. Description: Exposure concentration/time and selective killing of cancer versus normal cells. Type of data set: cell-based. How it is done:
The studies described herein discovered counter-intuitively that cancer cells and cancer stem cells requires much shorter exposure than normal cells to be killed by Compound 1. Normal cells can tolerate up to 24 hours of exposure to Compound 1. Furthermore, the studies here discovered that normal cells can recover after a short period of no-drug exposure, while cancer cells cannot recover once they are exposed to a certain concentration of the Compound 1 for at least 2 hours. Based on these studies, a special pharmacokinetic exposure [termed selective pharmacokinetic profile (SPP), or preferred pharmacokinetic profile (PPP), which is used interchangeably in this publication] was designed for Compound 1 using the data shown below in Table 14 for achieving selective antitumor activity in patients (FIG. 24).
The selective activity of Compound 1 in killing cancer cells and sparing normal cells is represented by the data in Table 14 and illustrated in FIG. 24.

Data set [3] has as its system cancer cells and normal cells. To be noted: literature reports (Hirai 1999; Takano 2009); cited from earlier work.
A short description of data set [4]: Concentration in patient urine. The class given is in vivo, human. To be noted: patient 0001, 20 mg daily administration.
Data set [5] can be described thus: Phase I clinical trial: safety and tolerability. The class given is in vivo, human. An excerpt: Grade 3 or greater events include: fatigue and diarrhea.
The next data set concerns advanced cancers. Description: Progression free survival of patients. Type of data set: in vivo, human. The text has this: FIG. 22 is a graph that illustrates the comparison of progression free survival of colorectal cancer patients treated with Compound 1. The progression free survival (PFS) of evaluable patients with colorectal cancer treated with Compound 1 was compared against historical PFS data for best supportive care in patients with colorectal cancer.
FIG. 23 is a graph that illustrates the comparison of progression free survival (PFS) versus pharmacokinetic exposure. The PFS of evaluable patients receiving Compound 1 was compared against Compound 1 exposure above or below 1.6 uM for at least 4 hours.

Data set [6] is described as follows: Toxicity (body weight, deaths) in xenograft-bearing immunosuppressed mice. The class given is in vivo. To be noted: for mice died during the treatment: about 90% pure. How it is done:
All regimens were administered daily (qd). Body weights were evaluated periodically during treatment. Each point represents the mean±SEM of eight tumors. […] All regimens were administered daily (qd). Body weights were evaluated periodically during treatment. Each point represents the mean±SEM of eight tumors.
as §1

The nature of data set [7]: Phase I clinical trial: plasma pharmacokinetics. The class given is in vivo, human.
Experimental: A cycle consists of twice-daily oral administration of the compound for 4 weeks. Cycles were repeated every 4 weeks (28 days) until progression of disease, unacceptable toxicity, or another discontinuation criterion is met. The dose escalation trial was conducted as open label and multicenter trial. A modified Simon accelerated titration scheme was used for dose escalation.
The primary objective of the trial was to determine the safety, tolerability, and recommended phase II dose (RP2D). The secondary objectives of the trial were to determine the pharmacokinetic profile of the compound, pharmacodynamics of the compound, and preliminary antitumor activity of the compound.
A further data set relates to advanced solid tumors. Nature of the data set: Phase I clinical trial: tumor response (RECIST 1.1). The class given is in vivo, human. An excerpt:
Of the 42 patients dosed, 24 were evaluable for tumor response as of Feb. 7, 2011; 16 (16/24 evaluable patients) achieved stable disease (8 to 75+ weeks).

A short description of data set [8]: Pharmacokinetics in mice of 2, 20, 150 micron particle size formulations. The class given is in vivo. To be noted: particle size 125-150 micron vs 2 and 20 micron, 100 mg/kg oral, 20% Gelucire 44/14, 1% Tween 80. As for the experimental part: In an experiment, micronized Compound 1 prepared in step 6 of Example 2 with a mean particle size of 2 micron, 20 microns, 150 microns were formulated as suspensions in 20% Gelucire 44/14 and 1% Tween 80 and administered orally to mice at 100 mg/kg. Each time point represents the average of 3 mice (FIG. 16).

Where [9] appears, read: particle size less than 5 micron.
[10] abbreviates: crystal form used in clinical trials.

Consider four molecules from US9730909B2, “Methods for targeting cancer stem cells” (BOSTON BIOMEDICAL, INC, priority 2010, dated 2017).

Values joined by “and” are separate entries in the source; they are usually repeats but may differ in a detail not shown here. Equal entries are not always repeated. “Also recorded” adds a separate entry of the source.

Turning to `CC(=O)c1cc2c(o1)C(=O)c1ccccc1C2=O` [Crystal Form 1, 2-acetyl-4H, 9H-naphtho[2,3-b]furan-4,9-dione], in data set [1] (hand grounded Crystal Form 1 in GELUCIRE, po, qd), the anti-tumor activity result is on record as “limited anti-tumor activity; also recorded: low anti-tumor activity”.
Turning to `CC(=O)c1cc2c(o1)C(=O)c1ccccc1C2=O` [Compound 1, 2-acetylnaphtho[2,3-b]furan-4,9-dione], the “exposure time tolerated by normal cells” value in [2] is “up to 24 hours”. Also, the selectivity of killing result in data set [2] (about or above 0.2 and 30 μM for about 4 hours up to about 24 hours) is “selective killing of cancer cells and sparing of normal cells”. In addition, the “toxicity to cancer cells versus normal cells” value in data set [3] is “equally toxic to cancer cells and normal cells”. Also, the “concentration of the compound in urine” value in data set [4] is “high concentration”. In addition, the “maximum tolerated dose (MTD)” value in data set [5] (dose escalated from 20 mg to 2000 mg/day) was “not reached; also recorded: neither MTD nor RP2D has been reached”. The “Urine Color Change, # of Events” value in data set [5] (human, in vivo) is reported as 2; in data set [5] (human, in vivo, 4 weeks), 0. Besides, the “Urine Color Change, % of Total” value in [5] (human, in vivo) stood at 2.5%. Further, the progression free survival entry in the data set on advanced cancers (blood drug concentration above 1 uM, patients with diverse cancers) is on record as “increase in progression free survival”; in the data set with advanced cancers (patients with exposure above 1.6 uM for at least 4 hours), “improvement in progression free survival”. Further, the “progression free survival (PFS)” value in the data set with advanced cancers (patients with advanced colorectal cancer refractory to chemotherapy) is reported as “Prolongation of progression free survival”. Also, the toxicity entry in [6] (about 90% pure Compound 1, GELUCIRE, po, qd) is “Significant toxicity”; in data set [1] (setting [9]), “no observed toxicity”. In addition, the “mice died during the treatment” value in data set [6] (mice with FaDu human head and neck cancer (first experiment)) amounted to 4; in [6] (mice with MDA-231 human breast cancer (second experiment)), 3. In [6] (higher purity (about 95% or greater), mice with FaDu or MDA-231 xenografts, po, qd), the tolerability entry is “well-tolerated and showed no signs of toxicity”. In addition, in data set [7] (320 mg/day dose level, at a concentration of at least 1.5 μM), the “time plasma concentration was sustained” value is on record as “over 8 hours”. In data set [7] (human, in vivo, 20 mg), the “clearance from the blood” value was “rapidly cleared from the blood”. In addition, the AUC0-24 came to 29.79 µM·h in data set [7] (human, in vivo, 320 mg); 26.43 µM·h in [7] (human, in vivo, 800 mg); 28.38 µM·h in [7] (human, in vivo, 1400 mg). Further, in the data set on advanced solid tumors (20 mg QD), the “antitumor activity in a colon cancer lesion in kidney” value is listed as “signs of potent antitumor activity”. In the data set with advanced solid tumors (24 evaluable patients with advanced refractory cancers), the “evaluable patients showing no metastatic tumors” value is “over 80%”. The “response of colon cancer metastatic lesion to kidney” value in the data set with advanced solid tumors (patient 0001, 20 mg daily) is “complete regression”. In the data set with advanced solid tumors (patient 0014, total daily dose 400 mg bid, Ovarian cancer), the “Best Response, remark (CA 125)” value was “CA 125 normalization”. Further, in the data set with advanced solid tumors (patient 0015, total daily dose 400 mg bid, Colon adenocarcinoma), the “Best Response, remark (CEA)” value is “CEA ? >30-50%”. Besides, the “evaluable patients showing SD/MR by RECIST 1.1” value with advanced solid tumors (tumors refractory to chemotherapies) was 16/24 and 16 out of 24. The efficacy entry in data set [1] (median particle size about 20 micron, 200 mg/kg oral daily) was “weak or moderate efficacy”; in data set [1] (particle size greater than 20 micron), “no or weak efficacy”. The anti-tumor activity entry in [1] (nanoparticles, D50 about 100 nanometers) is recorded as “reduction of anti-tumor activity”; in data set [1] (setting [9]) it was “potent anti-tumor activity”. In data set [8], the plasma exposure result is “lower level of exposure”.
As to `CC(=O)c1cc2c(o1)C(=O)c1ccccc1C2=O` [Crystal Form 2, 2-acetyl-4H, 9H-naphtho[2,3-b]furan-4,9-dione], the “pharmacokinetics in cancer patients” value in data set [7] (setting [10]) was “desirable pharmacokinetics”. The “anti-tumor activity in cancer patients” value in the data set with advanced solid tumors (setting [10]) was “strong signs of anti-tumor activity”. In addition, the anti-tumor activity entry in data set [1] (100 mg/kg micronized (first crop, process of FIGS. 5A-5B) in GELUCIRE, po, qd) is given as “potent anti-tumor activity”.
Regarding `CC(=O)c1cc2c(o1)C(=O)c1ccccc1C2=O` [Crystal Form 3, 2-acetyl-4H, 9H-naphtho[2,3-b]furan-4,9-dione], the antitumor activity entry in [1] (200 mg/kg hand grounded, in gelucire, po, qd) is listed as “potent antitumor activities”.
